# Results: patent US20260266837A1, “Methods for Cancer Recurrence Detection and Treatment Thereof” (Institut Curie, priority 2022, published 2026)
# Experiments:
# [1] = tested on: MDA-MB-468, BT20 and HCC38; test: Number of persister cells after EZH2i pre-treatment and 5-FU; format: cell-based, human; conditions: 10 days pre-treatment, then 5-FU for 21 days
# Experimental: Cell lines, culture conditions and drug treatments. […] All cell lines were cultured in a humidified 5% CO2 atmosphere at 37° C., and were tested as mycoplasma negative. […] Cells were treated with 5 μM of 5-FU (Sigma, Ref: […]) alone or in combination with KDM6A/Bi or EZH2i for indicated days. […] Cell proliferation, doubling time and IC50. MDA-MB-468, HCC38 and BT20 cells were stained with Trypan Blue (Invitrogen, Ref: T10282) exclusion test, and counted using a Countess automated cell counter (Invitrogen, Ref: C10228) at indicated time of treatment (FIG. 4a and Extended FIG. 8a/d/f).
# H3K27me3, EZH2 = molecular target: T1, H3K27me3, EZH2 (Homo sapiens, UniProt Q15910); test: Western blotting of EZH2i-treated cells; format: cell-based; conditions: prior to chemotherapy treatment
# T1 construct: endogenous in cells; host or cells: MDA-MB-468, HCC38 or BT20
# Experimental: Western blotting. In Extended FIG. 8b/e/g, DMSO- and EZH2i-treated cells were lysed at 95° C. for 10 minutes in Laemmli buffer (50 mM Tris-HCl [pH 6.8], 2% SDS, 5% glycerol, 2 mM DTT, 2.5 mM EDTA, 2.5 mM EGTA, 4 mM Sodium Orthovanadate, 20 mM Sodium Fluoride, protease inhibitors, phosphatase inhibitors) and proteins concentrations were measured using a Pierce BCA protein Assay Kit (Thermo Fisher Scientific, Ref: 23225/23227). 10 μg of proteins were then separated on a 4-15% Mini-PROTEAN TGX Stain-Free Gel (Bio-Rad, Ref: 4568085) at 160V. After transfer, the membrane was blocked for 1 h at room temperature in PBS pH 7.4 containing 0.1% Tween-20 and 1% milk (Regilait). Incubation anti-H3K27me3 (Dilution: 1:2000, Cell Signaling, Ref: 9733) or EZH2 (Dilution: 1:2000, Cell Signaling, Ref: 5246) or Tubulin (Dilution: 1:1000, Thermo Fisher Scientific, Ref: 31460) primary antibodies diluted in PBS pH 7.4, 0.1% Tween-20 were performed at 4° C. overnight.
# MDA-MB-468 cells = test: Lineage barcode frequencies and diversity under 5-FU with EZH2i; format: cell-based, human
# Source text: Lentivirus packaging and cell transduction. Lentivirus was produced by transfecting the barcode plasmids pRRL-CMV-GFP-BCv2Ascl and p8.9-QV and pVSVG into HEK293T cells as previously described^30. MDA-MB-468 cells from ATCC were infected at passage 11 with lentivirus produced from the barcode library (pRRL-CMV-GFP-BCv 2Ascl) which includes 18206 different barcodes of 20 bp of a random stretch, at a low multiplicity of infection (MOI 0.1) to minimize the number of cells marked by multiple barcodes. Three weeks after transduction, cells were sorted for GFP expression to select cells with barcode insertion, and used for drug treatment.
# Bulk lineage barcode library preparation and sequencing. Lineage barcodes are recovered by isolating genomic DNA from cells of interest (NucleoSpin Tissue, Mini kit for DNA from cells and tissue, Macherey Nagel, Ref: 740952.50). From the isolated genomic DNA, barcodes are amplified with three nested PCR steps as decribed in^30 (see Extended Table 1 for primer sequence). In short, after a first specific PCR for the common region of the lineage barcodes, the amplified material was prepared for sequencing by addition of the illumina sequencing adaptaters and indexing and purification. Sequencing was done in order to obtain 50 reads, on average, per barcoded cell.
# Single-cell lineage barcode extraction from 10× datasets. […] To avoid running scripts on all reads we: 1. used samtools to extract all unmapped reads from the 10× output bam file, 2. used awk to take reads with either a 3′ or 5′ 20 bp match to the constant flanking region of the barcode allowing one mismatch, 3. retained only reads with both a 10× cell barcode and 10× UMI. We then located the 20 bp match to one of the constant flanking regions allowing one mismatch (but filtered out reads where a mismatch was in the first or last base to ensure the barcode is at the expected position). We then further required a 4 bp exact match on the other side of the barcode, and then extracted the 20 bp viral barcode, read name, 10× cell barcode and 10× UMI.
# To assign one viral barcode to each 10× cell barcode, we determined a consensus viral barcode for each UMI. For each position in the barcode we returned the most frequently observed base and the proportion of reads supporting this consensus. Barcodes associated with a 10× CB-UMI pair were filtered if the proportion of reads supporting a position was ≤0.5 at ≥3 positions. […]
# Bulk barcode pre-processing. […] In brief, using R-3.4.0 (R Development Core Team (2019) http://www.R-project.org), raw reads were first filtered for perfect to the input index-and common-sequences using XCALIBR (https://github.com/NKI-GCF/xcalibr) and filtered against the barcode reference list. […]
# T1 sequence (Q15910 whole entry): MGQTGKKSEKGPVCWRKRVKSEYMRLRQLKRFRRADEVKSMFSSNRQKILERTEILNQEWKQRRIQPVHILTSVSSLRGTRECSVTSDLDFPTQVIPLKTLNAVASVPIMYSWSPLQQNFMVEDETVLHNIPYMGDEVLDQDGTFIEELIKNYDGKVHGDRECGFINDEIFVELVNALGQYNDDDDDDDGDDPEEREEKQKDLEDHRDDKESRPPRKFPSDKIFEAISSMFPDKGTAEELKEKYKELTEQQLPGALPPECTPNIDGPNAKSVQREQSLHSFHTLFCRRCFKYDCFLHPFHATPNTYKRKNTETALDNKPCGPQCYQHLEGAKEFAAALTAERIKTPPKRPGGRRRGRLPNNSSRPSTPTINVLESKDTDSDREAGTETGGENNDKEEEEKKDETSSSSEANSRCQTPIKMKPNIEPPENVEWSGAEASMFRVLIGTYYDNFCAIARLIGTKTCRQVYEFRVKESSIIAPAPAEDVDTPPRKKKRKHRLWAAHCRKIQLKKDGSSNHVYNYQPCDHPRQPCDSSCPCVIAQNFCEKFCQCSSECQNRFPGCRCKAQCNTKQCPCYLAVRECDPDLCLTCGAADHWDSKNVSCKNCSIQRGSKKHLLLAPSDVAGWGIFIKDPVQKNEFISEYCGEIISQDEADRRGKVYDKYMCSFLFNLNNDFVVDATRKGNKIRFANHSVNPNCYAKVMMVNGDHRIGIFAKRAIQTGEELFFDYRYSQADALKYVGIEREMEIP
# T1 sequence (O75530 whole entry partner): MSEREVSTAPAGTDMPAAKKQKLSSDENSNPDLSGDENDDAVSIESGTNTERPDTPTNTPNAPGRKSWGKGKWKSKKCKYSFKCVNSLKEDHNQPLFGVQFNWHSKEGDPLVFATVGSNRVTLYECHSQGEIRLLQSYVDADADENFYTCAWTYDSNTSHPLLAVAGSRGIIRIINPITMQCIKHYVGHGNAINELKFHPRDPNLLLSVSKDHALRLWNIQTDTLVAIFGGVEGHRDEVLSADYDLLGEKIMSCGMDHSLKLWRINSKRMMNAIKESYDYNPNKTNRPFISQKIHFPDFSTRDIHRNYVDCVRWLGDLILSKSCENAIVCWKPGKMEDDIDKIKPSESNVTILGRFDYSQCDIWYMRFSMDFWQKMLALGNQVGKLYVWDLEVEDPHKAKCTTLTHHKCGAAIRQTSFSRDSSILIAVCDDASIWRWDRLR
# T1 sequence (Q15022 whole entry partner): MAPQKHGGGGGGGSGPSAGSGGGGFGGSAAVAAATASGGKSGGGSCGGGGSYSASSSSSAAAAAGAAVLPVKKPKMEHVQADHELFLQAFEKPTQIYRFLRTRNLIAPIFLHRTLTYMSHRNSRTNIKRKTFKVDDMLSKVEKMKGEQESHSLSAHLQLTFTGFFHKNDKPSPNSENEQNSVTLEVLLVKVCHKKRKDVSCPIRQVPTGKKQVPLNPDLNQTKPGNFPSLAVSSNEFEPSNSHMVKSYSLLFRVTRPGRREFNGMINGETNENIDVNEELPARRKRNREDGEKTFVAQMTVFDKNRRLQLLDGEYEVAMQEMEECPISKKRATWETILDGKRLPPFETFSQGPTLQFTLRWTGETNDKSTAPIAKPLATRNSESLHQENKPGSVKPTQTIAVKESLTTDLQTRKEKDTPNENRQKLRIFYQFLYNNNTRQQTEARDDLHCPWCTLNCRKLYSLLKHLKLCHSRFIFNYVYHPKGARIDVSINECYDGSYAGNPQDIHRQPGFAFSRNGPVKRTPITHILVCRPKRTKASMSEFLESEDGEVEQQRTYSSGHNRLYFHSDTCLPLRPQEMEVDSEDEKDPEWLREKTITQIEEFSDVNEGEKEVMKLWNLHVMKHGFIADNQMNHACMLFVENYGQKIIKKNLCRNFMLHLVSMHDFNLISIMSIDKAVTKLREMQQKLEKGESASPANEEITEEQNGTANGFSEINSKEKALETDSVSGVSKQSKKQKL
structure (smiles),measurement,setting,value
CCCc1cc(C)[nH]c(=O)c1CNC(=O)c1cc(-c2ccc(N3CCN(C(C)C)CC3)nc2)cc2c1cnn2C(C)C [EZH2i-1],number of persister cells,[1],increased the number of persister cells
same,EZH2 protein levels,"H3K27me3, EZH2",without perturbing EZH2 protein levels
same,H3K27me3 level,"H3K27me3, EZH2",erasing H3K27me3
same,diversity in lineage barcodes in CDH2+ persister populations,"MDA-MB-468 cells; R3 cluster, 5-FU with versus without EZH2i-1, p<10^-4",over 2 fold-increase
same,correlation scores between lineage frequencies in 5-FU and DMSO treated population,"MDA-MB-468 cells; co-treatment with 5-FU, bulk lineage barcodes",increased correlation scores
